Results as given in PubChem BioAssay (NCI).
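The compound was tested at five concentrations on cells cultured in 96-well plates, with a 48-hour exposure period. TGI: total growth inhibition.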

How the values were obtained:
Assay in all cases: NCI anticancer screen, dose series, 48 h
A498 renal = tested on: A498 renal
CAKI-1 renal = tested on: CAKI-1 renal
CCRF-CEM leukemia = tested on: CCRF-CEM leukemia
HL-60(TB) leukemia = tested on: HL-60(TB) leukemia
HS 578T breast = tested on: HS 578T breast
LOX IMVI melanoma = tested on: LOX IMVI melanoma
M14 melanoma = tested on: M14 melanoma
MALME-3M melanoma = tested on: MALME-3M melanoma
MCF7 breast = tested on: MCF7 breast
NCI-H460 lung = tested on: NCI-H460 lung
NCI/ADR-RES ovarian = tested on: NCI/ADR-RES ovarian
OVCAR-3 ovarian = tested on: OVCAR-3 ovarian
TK-10 renal = tested on: TK-10 renal
UO-31 renal = tested on: UO-31 renal

For `COC(=O)C1CCC(=O)N1C(c1ccc2c(c1)OCO2)c1ccc2c(c1)OCO2` (configuration not stated), the TGI (A498 renal) was greater than 100 µM, the TGI (CAKI-1 renal) was greater than 100 µM and the TGI (CCRF-CEM leukemia) was greater than 100 µM. The TGI (HL-60(TB) leukemia) was greater than 100 µM, the TGI (HS 578T breast) was greater than 100 µM and the TGI (LOX IMVI melanoma) was greater than 100 µM. It also gave a TGI (M14 melanoma) greater than 100 µM, a TGI (MALME-3M melanoma) greater than 100 µM and a TGI (MCF7 breast) greater than 100 µM. It also gave a TGI (NCI-H460 lung) greater than 100 µM, a TGI (NCI/ADR-RES ovarian) greater than 100 µM and a TGI (OVCAR-3 ovarian) greater than 100 µM. For the same compound, the TGI (TK-10 renal) was greater than 100 µM and the TGI (UO-31 renal) was greater than 100 µM.
`CN1CCN(c2ccc(-n3cc(C(=O)O)c(=O)c4cc(F)c(N5CCN(C)CC5)cc43)nc2)CC1` showed a TGI (A498 renal) greater than 100 µM, a TGI (CAKI-1 renal) greater than 100 µM and a TGI (CCRF-CEM leukemia) greater than 100 µM. It also gave a TGI (HL-60(TB) leukemia) greater than 100 µM, a TGI (HS 578T breast) greater than 100 µM and a TGI (LOX IMVI melanoma) greater than 100 µM. It also gave a TGI (M14 melanoma) greater than 100 µM, a TGI (MALME-3M melanoma) greater than 100 µM and a TGI (MCF7 breast) greater than 100 µM. The TGI (NCI-H460 lung) was greater than 100 µM, the TGI (NCI/ADR-RES ovarian) was greater than 100 µM and the TGI (OVCAR-3 ovarian) was greater than 100 µM. It also gave a TGI (TK-10 renal) greater than 100 µM and a TGI (UO-31 renal) greater than 100 µM.
With `CCc1n[nH]c(=O)n1NC(=O)/C=C\C(=O)O` the TGI (A498 renal) was greater than 100 µM, the TGI (CAKI-1 renal) was greater than 100 µM and the TGI (CCRF-CEM leukemia) was greater than 100 µM. The TGI (HL-60(TB) leukemia) was greater than 100 µM, the TGI (HS 578T breast) was greater than 100 µM and the TGI (M14 melanoma) was greater than 100 µM. It also gave a TGI (MALME-3M melanoma) greater than 100 µM, a TGI (MCF7 breast) greater than 100 µM and a TGI (NCI-H460 lung) greater than 100 µM. It also gave a TGI (NCI/ADR-RES ovarian) greater than 100 µM, a TGI (OVCAR-3 ovarian) greater than 100 µM and a TGI (TK-10 renal) greater than 100 µM.
With `C=C(C(=O)O)[C@@H]1C[C@@H]2O[C@H]1CC(C)=CCC/C(C)=C/CC[C@@]2(C)O` the TGI (A498 renal) was greater than 100 µM, the TGI (CAKI-1 renal) was greater than 100 µM and the TGI (CCRF-CEM leukemia) was greater than 100 µM. For the same compound, the TGI (HL-60(TB) leukemia) was greater than 100 µM, the TGI (HS 578T breast) was greater than 100 µM and the TGI (LOX IMVI melanoma) was greater than 100 µM. For the same compound, the TGI (M14 melanoma) was greater than 100 µM, the TGI (MALME-3M melanoma) was greater than 100 µM and the TGI (MCF7 breast) was greater than 100 µM. For the same compound, the TGI (NCI-H460 lung) was greater than 100 µM, the TGI (NCI/ADR-RES ovarian) was greater than 100 µM and the TGI (OVCAR-3 ovarian) was greater than 100 µM. For the same compound, the TGI (TK-10 renal) was greater than 100 µM and the TGI (UO-31 renal) was greater than 100 µM.
`Cc1ccc(C)c(NC(=O)C(Cc2c[nH]c3ccccc23)NC(=O)OCc2ccccc2)c1` (configuration not stated) gave a TGI (A498 renal) greater than 100 µM, a TGI (CAKI-1 renal) of 56.7 µM and a TGI (CCRF-CEM leukemia) of 12.2 µM. For the same compound, the TGI (HL-60(TB) leukemia) was 15.4 µM, the TGI (HS 578T breast) was greater than 100 µM and the TGI (LOX IMVI melanoma) was greater than 100 µM. For the same compound, the TGI (M14 melanoma) was 34.7 µM, the TGI (MALME-3M melanoma) was 98.9 µM and the TGI (MCF7 breast) was greater than 100 µM. The TGI (NCI-H460 lung) was 44 µM, the TGI (NCI/ADR-RES ovarian) was 33 µM and the TGI (OVCAR-3 ovarian) was greater than 100 µM. The TGI (TK-10 renal) was 39.2 µM and the TGI (UO-31 renal) was 34.9 µM.
Work on `O=C(O)C(F)(OC(F)(F)C(F)(OC(F)(F)C(F)(F)C(F)(F)F)C(F)(F)F)C(F)(F)F` (configuration not stated) yielded a TGI (A498 renal) greater than 100 µM, a TGI (CAKI-1 renal) greater than 100 µM and a TGI (CCRF-CEM leukemia) greater than 100 µM. For the same compound, the TGI (HL-60(TB) leukemia) was greater than 100 µM, the TGI (HS 578T breast) was greater than 100 µM and the TGI (LOX IMVI melanoma) was greater than 100 µM. It also gave a TGI (M14 melanoma) greater than 100 µM, a TGI (MALME-3M melanoma) greater than 100 µM and a TGI (MCF7 breast) greater than 100 µM. It also gave a TGI (NCI-H460 lung) greater than 100 µM, a TGI (NCI/ADR-RES ovarian) greater than 100 µM and a TGI (OVCAR-3 ovarian) greater than 100 µM. The TGI (TK-10 renal) was greater than 100 µM and the TGI (UO-31 renal) was greater than 100 µM.
